Among the test systems are LOX IMVI; SW-620; HCC 2998; Malme-3M; SF-268; OVCAR-5; SK-MEL-5; UACC-257; HL-60; HOP-92; M14; HCT-116; U-251; NCI-H23; OVCAR-4; SNB-19; NCI-H226; MDA-MB-231.
What all share (assay): NCI tumour cell line growth inhibition, 48 h

Each structure is given as a SMILES string.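 Cells were grown in 96-well plates and exposed to each compound for 48 hours at five concentrations; endpoints were interpolated linearly between bracketing concentrations, or set to the highest concentration if not reached. GI50 is the concentration that inhibits growth by half.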 The source made the active and inactive calls. Rule as the data show it: active = GI50 up to about 1.1 µM and inactive = higher.

In the case of `COc1ccc2nc3cc(Cl)ccc3c(Nc3ccc(O)c(CN4CCN(C)CC4)c3)c2c1`, the GI50 was 1.71 µM (inactive) in the assay on LOX IMVI; 1.99 µM (inactive) with SW-620; 1.19 µM (inactive) in the assay with HCC 2998; 1.79 µM (inactive) in the assay with Malme-3M; 2.28 µM (inactive) with SF-268; 2.41 µM (inactive) in the assay on OVCAR-5. Besides, the GI50 with SK-MEL-5 is 1.73 µM (inactive); in the assay with UACC-257, 1.86 µM (inactive); with HL-60, 1.95 µM (inactive); in the assay on HOP-92, 1.72 µM (inactive); with M14 it was 1.99 µM (inactive); in the assay on HCT-116 it was 1.75 µM (inactive). Moreover, the GI50 is 1.67 µM (inactive) in the assay with U-251; 1.89 µM (inactive) with NCI-H23; 1.65 µM (inactive) in the assay on OVCAR-4; 2.43 µM (inactive) in the assay with SNB-19; 20.5 µM (inactive) in the assay on NCI-H226; 1.52 µM (inactive) with MDA-MB-231.
Take `N=c1oc2cc(O)ccc2cc1C(=O)Nc1cccc2ccccc12`: the GI50 in the assay with LOX IMVI was 4.86 µM (inactive); in the assay with SW-620, 3.4 µM (inactive); with HCC 2998, 3.71 µM (inactive); in the assay on Malme-3M, 0.883 µM (active); with SF-268, 3.61 µM (inactive); in the assay with OVCAR-5, 13.5 µM (inactive). For the same molecule, the GI50 in the assay on SK-MEL-5 was 4.23 µM (inactive); with UACC-257, 9.08 µM (inactive); with HL-60 it was 2.11 µM (inactive); in the assay with HOP-92 it was 4.31 µM (inactive); in the assay with M14, 7 µM (inactive); with HCT-116 it was 3.39 µM (inactive). Further, the GI50 with U-251 is 3.53 µM (inactive); in the assay on NCI-H23, 3.7 µM (inactive); in the assay on OVCAR-4, 7.01 µM (inactive); in the assay on SNB-19, 4.68 µM (inactive); in the assay with NCI-H226 it was 5.92 µM (inactive); in the assay with MDA-MB-231 it was 3.06 µM (inactive).
Take `NC1=Nc2ccccc2Sc2nncn21`: the GI50 with LOX IMVI, with SW-620, with HCC 2998, in the assay with Malme-3M, with SF-268 and with OVCAR-5 was > 100 µM (inactive) each time. Besides, the GI50 in the assay on SK-MEL-5, in the assay with UACC-257, in the assay on HL-60, with HOP-92, with M14 and with HCT-116 was > 100 µM (inactive) each time. Also, the GI50 in the assay on U-251 was > 100 µM (inactive); in the assay with NCI-H23 it was > 100 µM (inactive); in the assay with OVCAR-4, > 100 µM (inactive); with SNB-19 it was > 100 µM (inactive); with NCI-H226, > 100 µM (inactive); in the assay with MDA-MB-231, 85.3 µM (inactive).
As to `COc1ccc(-c2cn3c(nc4ccccc43)c(/C=C/c3cccs3)n2)cc1`, the GI50 was 35.3 µM (inactive) with LOX IMVI; 41.1 µM (inactive) in the assay with SW-620; 49.5 µM (inactive) with HCC 2998; 23.4 µM (inactive) with Malme-3M; 59.2 µM (inactive) in the assay with SF-268; > 100 µM (inactive) in the assay with OVCAR-5. In addition, the GI50 with SK-MEL-5 is 15.8 µM (inactive); with UACC-257 it was 62.7 µM (inactive); in the assay on HL-60, 20.4 µM (inactive); in the assay with HOP-92 it was 16.9 µM (inactive); with M14, 37.8 µM (inactive); with HCT-116, 51.2 µM (inactive). In addition, the GI50 is 53.1 µM (inactive) with U-251; 33.8 µM (inactive) in the assay with NCI-H23; 49.7 µM (inactive) with OVCAR-4; 92.3 µM (inactive) in the assay on SNB-19; > 100 µM (inactive) with NCI-H226; > 100 µM (inactive) with MDA-MB-231.
As to `COc1ccc(C2CC(C)(O)Oc3cc4c(cc32)OCO4)cc1` (stereo not drawn), the GI50 in the assay with LOX IMVI was 27.2 µM (inactive); in the assay on SW-620 it was 36 µM (inactive); in the assay with HCC 2998 it was 47.6 µM (inactive); in the assay on Malme-3M it was 47.2 µM (inactive); with SF-268 it was 35.8 µM (inactive); with OVCAR-5, 55.7 µM (inactive). The GI50 in the assay on SK-MEL-5 is 25.4 µM (inactive); in the assay with UACC-257, 32.4 µM (inactive); in the assay with HL-60 it was 17.6 µM (inactive); in the assay on HOP-92 it was 28.4 µM (inactive); in the assay with M14, 36 µM (inactive); with HCT-116, 30.6 µM (inactive). Further, the GI50 with U-251 was 31.4 µM (inactive); with NCI-H23, 33.7 µM (inactive); in the assay with OVCAR-4 it was 38.6 µM (inactive); in the assay with SNB-19, 38.4 µM (inactive); in the assay with NCI-H226, 53.7 µM (inactive); with MDA-MB-231, 32.6 µM (inactive).
In the case of `O=C(O)c1nc2ccc(Cl)cc2[nH]c1=O`, the GI50 in the assay on LOX IMVI, with SW-620, in the assay with HCC 2998, in the assay with Malme-3M, in the assay with SF-268 and in the assay on OVCAR-5 was > 100 µM (inactive) each time. The GI50 with SK-MEL-5, in the assay on UACC-257, with HL-60, in the assay on HOP-92, in the assay with M14 and in the assay with HCT-116 was > 100 µM (inactive) each time. In addition, the GI50 in the assay on U-251, in the assay with NCI-H23, with OVCAR-4, in the assay on SNB-19, in the assay with NCI-H226 and with MDA-MB-231 was > 100 µM (inactive) in each case.
Consider `COC(=O)c1ccccc1CC1Cc2cc3c(cc2C1)CCC3`, for which the GI50 with LOX IMVI is 24 µM (inactive); in the assay on SW-620 it was 53.5 µM (inactive); in the assay on HCC 2998, 42.5 µM (inactive); with Malme-3M it was 21.3 µM (inactive); with SF-268, 40.8 µM (inactive); in the assay with OVCAR-5, 50.4 µM (inactive). Moreover, the GI50 is 25.8 µM (inactive) with SK-MEL-5; 31.2 µM (inactive) with UACC-257; 9.75 µM (inactive) with HL-60; 26.9 µM (inactive) in the assay with HOP-92; 38.8 µM (inactive) in the assay on M14; 22.1 µM (inactive) in the assay with HCT-116. Also, the GI50 was 36.5 µM (inactive) in the assay with U-251; 38.5 µM (inactive) in the assay with NCI-H23; 39.5 µM (inactive) in the assay with OVCAR-4; 74.1 µM (inactive) with SNB-19; 35.2 µM (inactive) in the assay with NCI-H226; 55.1 µM (inactive) with MDA-MB-231.
As to `Cc1nnc(SCc2nc(C#N)c(C#N)nc2CSc2nnc(C)s2)s1`, the GI50 in the assay on LOX IMVI was 8.89 µM (inactive); in the assay on SW-620 it was 3.43 µM (inactive); with HCC 2998, 16.5 µM (inactive); in the assay on Malme-3M it was 5.75 µM (inactive); in the assay on SF-268, 17.9 µM (inactive); in the assay on OVCAR-5, 18.1 µM (inactive). Further, the GI50 was 15 µM (inactive) in the assay on SK-MEL-5; 13.8 µM (inactive) with UACC-257; 1.79 µM (inactive) in the assay on HL-60; 12.9 µM (inactive) in the assay on HOP-92; 16.6 µM (inactive) with M14; 4.55 µM (inactive) with HCT-116. Moreover, the GI50 in the assay on U-251 is 18.7 µM (inactive); in the assay with NCI-H23, 19.1 µM (inactive); in the assay with OVCAR-4 it was 15.2 µM (inactive); with SNB-19 it was 47.5 µM (inactive); with NCI-H226, 25.1 µM (inactive); in the assay on MDA-MB-231, 16.6 µM (inactive).
With `c1ccc(/N=C2/SC(c3ccccc3)(c3ccccc3)c3ccccc32)cc1`, the GI50 in the assay with LOX IMVI was 71.6 µM (inactive); in the assay with SW-620 it was > 100 µM (inactive); in the assay on HCC 2998, > 100 µM (inactive); with Malme-3M, > 100 µM (inactive); with SF-268, > 100 µM (inactive); in the assay with OVCAR-5, > 100 µM (inactive). Besides, the GI50 was 57.8 µM (inactive) in the assay on SK-MEL-5; > 100 µM (inactive) in the assay with UACC-257; > 100 µM (inactive) with HL-60; > 100 µM (inactive) with HOP-92; > 100 µM (inactive) in the assay on M14; 64.3 µM (inactive) with HCT-116. Further, the GI50 is 10.4 µM (inactive) with U-251; > 100 µM (inactive) in the assay with NCI-H23; > 100 µM (inactive) in the assay with OVCAR-4; > 100 µM (inactive) with SNB-19; > 100 µM (inactive) in the assay with NCI-H226; > 100 µM (inactive) in the assay on MDA-MB-231.
For `CCOc1cc2c(cc1O)C=C[C@@H]1[C@@H]2CC[C@]2(C)[C@@H](O)CC[C@@H]12`, the GI50 in the assay with LOX IMVI was 3.87 µM (inactive); in the assay on SW-620, 1.87 µM (inactive); in the assay with HCC 2998, 6.34 µM (inactive); with Malme-3M it was 1.5 µM (inactive); with SF-268, 9.06 µM (inactive); in the assay with OVCAR-5, 27.6 µM (inactive). Also, the GI50 is 1.97 µM (inactive) with SK-MEL-5; 12.5 µM (inactive) in the assay with UACC-257; 0.579 µM (active) with HL-60; 29.9 µM (inactive) in the assay on HOP-92; 2.8 µM (inactive) with M14; 1.11 µM (active) in the assay on HCT-116. Further, the GI50 with U-251 is 3.43 µM (inactive); in the assay with NCI-H23 it was 3.85 µM (inactive); in the assay with OVCAR-4, 24.9 µM (inactive); in the assay with SNB-19 it was 3.52 µM (inactive); in the assay with NCI-H226 it was 4.06 µM (inactive); with MDA-MB-231 it was 4.11 µM (inactive).
Regarding `CCOC(=O)c1c2ccccc2n2c(=O)n(-c3ccc(OC)cc3)nnc12`, the GI50 was 17.3 µM (inactive) in the assay with LOX IMVI; > 42.4 µM (inactive) with SW-620; > 100 µM (inactive) in the assay on HCC 2998; 30.5 µM (inactive) with Malme-3M; 16.2 µM (inactive) in the assay with SF-268; 46.1 µM (inactive) in the assay on OVCAR-5. Moreover, the GI50 with SK-MEL-5 is 58.5 µM (inactive); in the assay with UACC-257 it was 60.5 µM (inactive); with HL-60 it was 21.1 µM (inactive); with HOP-92 it was 21.7 µM (inactive); in the assay with M14, 51.1 µM (inactive); with HCT-116, 54.8 µM (inactive). The GI50 in the assay with U-251 was 16.9 µM (inactive); with NCI-H23, 34.4 µM (inactive); in the assay on OVCAR-4, 22.5 µM (inactive); with SNB-19, 34.2 µM (inactive); with NCI-H226 it was 23.3 µM (inactive); in the assay with MDA-MB-231, > 45.5 µM (inactive).

The values are drawn from ChEMBL document CHEMBL1201862, “PubChem BioAssay data set” (2004).
